# Entries after “also recorded” stand apart in the source; their conditions may differ.
# How the values were obtained:
# eye bank eyes = assay: Dye solution instilled by injection into the anterior chamber of eye bank eyes, viewed by naked eye / operating microscope; design: species or system human; settings: for egress of dye from the eye into outflow vessels after injection into the anterior chamber: eye bank eyes, Indigo Carmine 0.004, 0.04, 0.4 wt. %, other ophthalmic dyes for comparison
# Source text: After an incision is made into the anterior chamber of the eye, a small amount of aqueous humor is expressed and the dye solution is instilled by injection into the anterior chamber. The dye solution is typically left in place for 30 seconds, during which time it stains the anterior capsule of the lens. Excess dye solution is then expelled, usually using a viscoelastic device or flushed out with a balanced salt solution.
# Dye solutions containing 0.004 wt. %, 0.04 wt. %, and 0.4 wt. % of Indigo Carmine (prepared by serial dilutions of a 0.4 wt. % Indigo Carmine solution provided by Micro-Tech (Nanjing) Co.) were instilled by injection into the anterior chamber of seven eye bank eyes following the dye solution instillation procedure detailed above.
# Special imaging techniques were not required.
# ocular structures = settings: cited from earlier work
# anterior capsule = settings: cited from earlier work
# [1] = test system: ocular surface squamous neoplastic lesion; assay: Topical application of dye to a human eye, slit lamp view of ocular surface squamous neoplastic lesion; format: in vivo
# Source text: FIG. 8 is a slit lamp view of a human eye wherein an ocular surface squamous neoplastic lesion is delineated after topical application of Indigo Carmine. A blue outline is seen around the perimeter of the white ocular surface squamous neoplastic lesion.
# In certain embodiments, the dye delineates eye surface dysplasia and malignancy (ocular surface squamous neoplasia) as has been found in the gut (see, e.g., Oyama, T., “Diagnostic strategies of superficial Barrett's esophageal cancer for endoscopic submucosal dissection”, Dig. Endosc., 2013, 25 Suppl 1:7-12) (see FIG. 7)
# protein = settings: sodium salt; cited from earlier work
# [2] = cited from earlier work
# porcine eye = assay: Dye injected into the lenticular plain after Small Incision Lenticule Extraction (SMILE) in a porcine eye; settings: injected along the laser incision planes
# Source text: FIG. 9A is an operating microscope view of a porcine eye upon which a Small Incision Lenticule Extraction procedure (SMILE) has been carried out. From this view, circular horizontal plains have been cut in the corneal stroma, a superficial smaller diameter cut and a deeper cut of larger diameter. The cuts join in the corneal periphery, thereby creating a lenticule. The arrows show the edge of these cuts.
# FIG. 9B is an operating microscope view of a porcine eye upon which a Small Incision Lenticule Extraction procedure (SMILE) has been carried out. Indigo Carmine has been injected into the lenticular plain. The white arrows indicate the complete circular edge of the lenticule.
# Minimally invasive corneal procedures for correcting refractive error (see, e.g., Titiyal, J. S., et al., “Learning Curve of Small Incision Lenticule Extraction: Challenges and Complications”, Cornea, 2017, 36:1377-1382) have also been developed in recent years. For example, in Small Incision Lenticule Extraction (SMILE), a lenticule of corneal stroma is created within the stroma using a laser and then removed through a small incision. Occasionally, the cuts that create the lenticule are discontinuous, making lenticule extraction difficult. […]
# [3] = reduced state, fluorescent; cited from earlier work
# [4] = anterior chamber perfused with dye solution, sodium salt
compound,measurement,setting,value
Brilliant Blue,egress of dye from the eye into outflow vessels after injection into the anterior chamber,eye bank eyes,appears to remain within the eye
Cc1cc(-c2ccc(/N=N/c3c(S(=O)(=O)O)cc4cc(S(=O)(=O)O)cc(N)c4c3O)c(C)c2)ccc1/N=N/c1c(S(=O)(=O)O)cc2cc(S(=O)(=O)O)cc(N)c2c1O [Trypan Blue],identifying and visualizing anterior lens capsule and trabecular meshwork,ocular structures,effective
same,identifying or visualizing the canal of Schlemm,ocular structures,not effective
same,staining of the trabecular meshwork,eye bank eyes; anterior chamber perfused with dye solution,particularly enhances trabecular meshwork staining
same,egress of dye from the eye into outflow vessels after injection into the anterior chamber,eye bank eyes,appears to remain within the eye
same,lowest concentration at which staining can occur,anterior capsule,0.0125 wt. %
"O=C1C(=C2Nc3ccc(S(=O)(=O)[O-])cc3C2=O)Nc2ccc(S(=O)(=O)[O-])cc21.[Na+].[Na+] [Indigo Carmine, 5,5′-indigodisulfonic acid sodium salt]",delineation of ocular surface squamous neoplastic lesion,[1],delineated
same,protein binding,protein,low protein binding; also recorded: relatively reduced
same,solubility in water,[2],soluble in water
same,identification of laser incision planes and lenticule edge,porcine eye,possible to identify and determine the extent of these incisions
same,staining of the canal of Schlemm,eye bank eyes; [4],heavily; also recorded: heavy staining
same,staining of the trabecular meshwork,eye bank eyes; [4],lightly; also recorded: more lightly stained
same,visibility of dye in the collector channels on the surface of the eye,"eye bank eyes; at each concentration: 0.004, 0.04 and 0.4 wt. %",visible to the naked eye of the surgeon as it appeared in the collector channels on the surface of the eye
same,staining of the anterior capsule of the lens,"eye bank eyes; capsulorhexis procedure, eye bank eye",lightly stained
same,dye in the deep scleral plexus,"eye bank eyes; conjunctiva reflected away, sodium salt","observed in the deep scleral plexus; also recorded: deeper vessels are seen, evidence of the deep scleral plexus"
same,egress of dye from the eye into outflow vessels after injection into the anterior chamber,eye bank eyes; sodium salt,"appeared in the fine vessels in the conjunctiva adjacent to the limbus, the aqueous veins and the conjunctival venous system; also recorded: some of the dye exiting the eye through the aqueous veins"
same,visibility of dye on the surface of the instilled eye,eye bank eyes; no special imaging,easily visible to the naked eye of the surgeon
same,absorption maximum,[3],436 nm
same,emission maximum,[3],528 nm
CC1(C)C(/C=C/C=C/C=C/C=C2\N(CCCCS(=O)(=O)O)c3ccc4ccccc4c3C2(C)C)=[N+](CCCCS(=O)(=O)[O-])c2ccc3ccccc3c21 [Indocyanine Green],egress of dye from the eye into outflow vessels after injection into the anterior chamber,eye bank eyes,appears to remain within the eye
CCN(CC)c1ccc(C(=C2C=CC(=[N+](CC)CC)C=C2)c2cc(O)c(S(=O)(=O)O)cc2S(=O)(=O)O)cc1 [Patent Blue],egress of dye from the eye into outflow vessels after injection into the anterior chamber,eye bank eyes,appears to remain within the eye

# Reference: patent US20220151827A1, “Ophthalmic Compositions, and Ocular Uses Thereof, of Indigo Carmine” (priority 2019, published 2022)
